biological target: T1, Tau P301L (Homo sapiens, UniProt P10636, P618L); assay: In vitro tau degradation assay in CHOK1 Tau P301L cells (sarkosyl insoluble tau, WES); assay type: cell-based; conditions: CHO-K1; CHOK1 Tau P301L cells; remaining tau in sarkosyl insoluble pellet; 48 hours with test compound at 1 μM, doxycycline removed for last 24 hours; relative to DMSO doxycycline control; read-out: Tau Protein Degradation effect at 1 μM
T1 construct: expressed in transfected cells
In short: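 Sarkosyl-insoluble pellet tau, measured by WES capillary immunoassay (Tau1 antibody), was scored against DMSO doxycycline control as ≤50% or >50% remaining. Cells were CHOK1 clone D1 expressing Tau P301L under doxycycline (1 μg/ml), given 1 μM compound for 48 h with doxycycline withdrawn during the last 24 h.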

T1 sequence (P10636 1-441 isoform P10636-8 P301L): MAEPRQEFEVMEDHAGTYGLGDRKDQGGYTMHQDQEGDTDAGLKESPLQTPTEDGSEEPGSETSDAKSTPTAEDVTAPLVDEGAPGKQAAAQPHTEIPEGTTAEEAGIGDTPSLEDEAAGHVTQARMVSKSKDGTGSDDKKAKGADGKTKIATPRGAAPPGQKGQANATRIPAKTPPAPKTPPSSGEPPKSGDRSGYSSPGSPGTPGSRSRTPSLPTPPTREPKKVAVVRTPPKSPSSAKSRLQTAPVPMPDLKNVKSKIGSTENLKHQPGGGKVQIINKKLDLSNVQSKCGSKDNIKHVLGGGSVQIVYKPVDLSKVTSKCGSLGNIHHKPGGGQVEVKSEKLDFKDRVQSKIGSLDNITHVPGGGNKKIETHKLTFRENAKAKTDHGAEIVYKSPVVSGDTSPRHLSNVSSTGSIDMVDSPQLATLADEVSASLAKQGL

Row | remaining activity at 1 µM | Structure (SMILES)
1 | > 50% | O=C1CCC(N2Cc3nc(N4CCN(CCC5CCN(c6ncc(-c7ccc8c9cnccc9n(C(F)F)c8c7)cc6F)CC5)CC4)ccc3C2=O)C(=O)N1 (stereo not drawn) [Compound 607, 3-(2-(4-(2-(1-(5-(5-(difluoromethyl)-5H-pyrido[4,3-b]indol-7-yl)-3-fluoropyridin-2-yl)piperidin-4-yl)ethyl)piperazin-1-yl)-5-oxo-5,7-dihydro-6H-pyrrolo[3,4-b]pyridin-6-yl)piperidine-2,6-dione]
2 | > 50% | O=C1CCC(N2C(=O)c3ccc(OCCC4CCN(C[C@H]5C[C@H](Oc6ncc(-c7ccc8c9cnccc9n(C(F)F)c8c7)cc6F)C5)CC4)cc3C2=O)C(=O)N1 (stereo partly drawn) [Compound 636, 5-(2-(1-(((1r,3r)-3-((5-(5-(difluoromethyl)-5H-pyrido[4,3-b]indol-7-yl)-3-fluoropyridin-2-yl)oxy)cyclobutyl)methyl)piperidin-4-yl)ethoxy)-2-(2,6-dioxopiperidin-3-yl)isoindoline-1,3-dione]
3 | < 50% | O=C1CCC(N2C(=O)c3cc(N4CCN(CCC5CCN(c6ncc(-c7ccc8c9cnccc9n(C(F)F)c8c7)cc6F)CC5)CC4)cc(C(F)F)c3C2=O)C(=O)N1 (stereo not drawn) [Compound 641, 4-(difluoromethyl)-6-(4-(2-(1-(5-(5-(difluoromethyl)-5H-pyrido[4,3-b]indol-7-yl)-3-fluoropyridin-2-yl)piperidin-4-yl)ethyl)piperazin-1-yl)-2-(2,6-dioxopiperidin-3-yl)isoindoline-1,3-dione]
4 | < 50% | O=C1CCC(N2C(=O)c3ccc(N4CCN(CCOCCN5CCCc6cc(-c7ccc8c9cnccc9n(C(F)F)c8c7)cc(F)c65)CC4)cc3C2=O)C(=O)N1 (stereo not drawn) [Compound 611, 5-(4-(2-(2-(6-(5-(difluoromethyl)-5H-pyrido[4,3-b]indol-7-yl)-8-fluoro-3,4-dihydroquinolin-1(2H)-yl)ethoxy)ethyl)piperazin-1-yl)-2-(2,6-dioxopiperidin-3-yl)isoindoline-1,3-dione]
5 | > 50% | O=C1CCC(N2C(=O)c3cc(F)c(N4CCN(CC5CCN(c6ncc(-c7ccc8c9cnccc9n(C(F)F)c8c7)cc6F)CC5)CC4)cc3C2=O)C(=O)N1 (stereo not drawn) [Compound 608, 5-(4-((1-(5-(5-(difluoromethyl)-5H-pyrido[4,3-b]indol-7-yl)-3-fluoropyridin-2-yl)piperidin-4-yl)methyl)piperazin-1-yl)-2-(2,6-dioxopiperidin-3-yl)-6-fluoroisoindoline-1,3-dione]
6 | < 50% | O=C1CCC(N2C(=O)c3ccc(N4CCC(CCN5CCN(C6CCN(c7ccc8c9cnccc9n(C(F)F)c8c7)CC6)CC5)CC4)cc3C2=O)C(=O)N1 (stereo not drawn) [Compound 633, 5-(4-(2-(4-(1-(5-(difluoromethyl)-5H-pyrido[4,3-b]indol-7-yl)piperidin-4-yl)piperazin-1-yl)ethyl)piperidin-1-yl)-2-(2,6-dioxopiperidin-3-yl)isoindoline-1,3-dione]

same assay, conditions: CHO-K1; remaining tau protein in sarkosyl insoluble pellet; CHOK1 Tau P301L cells treated 48 hours with test compound at 1 μM, doxycycline removed for the last 24 hours; relative to DMSO doxycycline control; read-out: Tau Protein Degradation effect at 1 μM

Row | remaining activity at 1 µM | Structure (SMILES)
7 | < 50% | O=C1CCC(N2C(=O)c3ccc(OCCCN4CCC5(CC4)CN(c4ncc(-c6ccc7c8cnccc8n(C(F)F)c7c6)cc4F)C5)cc3C2=O)C(=O)N1 (stereo not drawn) [Compound 568, 5-(3-(2-(5-(5-(difluoromethyl)-5H-pyrido[4,3-b]indol-7-yl)-3-fluoropyridin-2-yl)-2,7-diazaspiro[3.5]nonan-7-yl)propoxy)-2-(2,6-dioxopiperidin-3-yl)isoindoline-1,3-dione]
8 | < 50% | O=C1CCC(N2C(=O)c3ccc(N4CCN(CCC5CCN(c6ncc(-c7ccc8c9cnccc9n(C(F)F)c8c7)cc6C(F)(F)F)CC5)CC4)cc3C2=O)C(=O)N1 (stereo not drawn) [Compound 489, 5-[4-[2-[1-[5-[5-(difluoromethyl)pyrido[4,3-b]indol-7-yl]-3-(trifluoromethyl)-2-pyridyl]-4-piperidyl]ethyl]piperazin-1-yl]-2-(2,6-dioxo-3-piperidyl)isoindoline-1,3-dione trifluroacetate]
9 | < 50% | O=C1CCC(N2C(=O)c3ccc(C#CCN4CCN(CCC5CCN(c6ccc7c8cnccc8n(C(F)F)c7c6)CC5)CC4)cc3C2=O)C(=O)N1 (stereo not drawn) [Compound 586, 5-(3-(4-(2-(1-(5-(difluoromethyl)-5H-pyrido[4,3-b]indol-7-yl)piperidin-4-yl)ethyl)piperazin-1-yl)prop-1-yn-1-yl)-2-(2,6-dioxopiperidin-3-yl)isoindoline-1,3-dione]
10 | < 50% | O=C1CCC(N2C(=O)c3ccc(N4CCN(CCC5CCN(C6CCN(c7ccc8c9cnccc9n(C(F)F)c8c7)CC6)CC5)CC4)cc3C2=O)C(=O)N1 (stereo not drawn) [Compound 593]

Further lines, the compound ahead of its results:

Row | Structure (SMILES) | remaining activity at 1 µM
11 | Cn1c2ccncc2c2ccc(-c3ccc(OC4CC5(C4)CN(C(=O)CN4CCN(CC6CN(c7ccc8c(c7)C(=O)N(C7CCC(=O)NC7=O)C8=O)C6)CC4)C5)nc3)cc21 (stereo not drawn) [Compound 458, 2-(2,6-dioxopiperidin-3-yl)-5-(3-((4-(2-(6-((5-(5-methyl-5H-pyrido[4,3-b]indol-7-yl)pyridin-2-yl)oxy)-2-azaspiro [3.3]heptan-2-yl)-2-oxoethyl)piperazin-1-yl)methyl)azetidin-1-yl)isoindoline-1,3-dione] | > 50%
12 | Nc1cccc2cnc(-n3ccc4cc(OCCOCCOCCOCCOc5ccc6c(c5)C(=O)N(C5CCC(=O)NC5=O)C6=O)ncc43)cc12 (stereo not drawn) [Compound 353, 5-(2-(2-(2-(2-((1-(5-aminoisoquinolin-3-yl)-1H-pyrrolo[2,3-c]pyridin-5-yl)oxy)ethoxy)ethoxy)ethoxy)ethoxy)-2-(2,6-dioxopipieridin-3-yl)isoindoline-1,3-dione] | < 50%
13 | O=C1CCC(N2C(=O)c3ccc(OCCOCCOCCOCCOc4ccc5cc(-n6ccc7ccncc76)ncc5c4)cc3C2=O)C(=O)N1 (stereo not drawn) [Compound 384, 5-(2-(2-(2-(2-((3-(1H-pyrrolo[2,3-c]pyridin-1-yl)isoquinolin-7-yl)oxy)ethoxy)ethoxy)ethoxy)ethoxy)-2-(2,6-dioxopiperidin-3-yl)isoindoline-1,3-dione] | > 50%
14 | Cn1c2ccncc2c2ccc(-c3ccc(OC4CC5(C4)CN(C(=O)CN4CCC(OC6CN(c7ccc8c(c7)C(=O)N(C7CCC(=O)NC7=O)C8=O)C6)CC4)C5)nc3)cc21 (stereo not drawn) [Compound 462, 2-(2,6-dioxopiperidin-3-yl)-5-(3-((1-(2-(6-((5-(5-methyl-5H-pyrido[4,3-b]indol-7-yl)pyridin-2-yl)oxy)-2-azaspiro[3.3]heptan-2-yl)-2-oxoethyl)piperidin-4-yl)oxy)azetidin-1-yl)isoindoline-1,3-dione] | > 50%
15 | Cn1c2ccncc2c2ccc(-c3ccc(O[C@H]4C[C@H](OC5CCN(CCN6CCN(c7ccc8c(c7)C(=O)N(C7CCC(=O)NC7=O)C8=O)CC6)CC5)C4)nc3)cc21 (stereo partly drawn) [Compound 341, 2-(2,6-dioxopiperidin-3-yl)-5-(4-(2-(4-((1r,3r)-3-((5-(5-methyl-5H-pyrido[4,3-b]indol-7-yl)pyridin-2-yl)oxy)cyclobutoxy)piperidin-1-yl)ethyl)piperazin-1-yl) isoindoline-1,3-dione] | > 50%
16 | Cn1c2ccncc2c2ccc(-c3ccc(O[C@H]4C[C@H](CN5CCC(CCOc6ccc7c(c6)C(=O)N(C6CCC(=O)NC6=O)C7=O)CC5)C4)nc3)cc21 (stereo partly drawn) [Compound 478, 2-(2,6-dioxopiperidin-3-yl)-5-(2-(1-(((1r,3r)-3-((5-(5-methyl-5H-pyrido[4,3-b]indol-7-yl)pyridin-2-yl)oxy)cyclobutyl)methyl)piperidin-4-yl)ethoxy)isoindoline-1,3-dione] | > 50%
17 | Cc1ncsc1-c1ccc([C@H](C)NC(=O)[C@@H]2C[C@@H](O)CN2C(=O)[C@@H](c2cc(OCCN3CCC(OC4CN(c5ccc(-c6ccc7c8cnccc8n(C)c7c6)cn5)C4)CC3)no2)C(C)C)cc1 (single isomer, unassigned) [Compound 467] | > 50%
18 | Cn1c2ccncc2c2ccc(-c3ccc(N4CC(OC5CCN(CCOc6ccc7c(c6)C(=O)N(C6CCC(=O)NC6=O)C7=O)CC5)C4)nc3)cc21 (stereo not drawn) [Compound 416, 2-(2,6-dioxopiperidin-3-yl)-5-[2-(4-[[1-(5-[5-methylpyrido[4,3-b]indol-7-yl]pyridin-2-yl)azetidin-3-yl]oxy]piperidin-1-yl)ethoxy]isoindole-1,3-dione] | < 50%
19 | Cn1c2ccncc2c2ccc(-c3ccc(O[C@H]4C[C@H](OC5CCN(c6ccc7c(c6)C(=O)N(C6CCC(=O)NC6=O)C7=O)CC5)C4)nc3)cc21 (stereo partly drawn) [Compound 493, 2-(2,6-dioxopiperidin-3-yl)-5-(4-((1r,3r)-3-((5-(5-methyl-5H-pyrido[4,3-b]indol-7-yl)pyridin-2-yl)oxy)cyclobutoxy)piperidin-1-yl) isoindoline-1,3-dione] | < 50%
20 | O=C1CCC(N2C(=O)c3ccc(N4CCN(CCC5CCN(c6ccnc(Nc7ccc8ncccc8n7)c6)CC5)CC4)cc3C2=O)C(=O)N1 (stereo not drawn) [Compound 656, 5-(4-(2-(1-(2-((1,5-naphthyridin-2-yl)amino)pyridin-4-yl)piperidin-4-yl)ethyl)piperazin-1-yl)-2-(2,6-dioxopiperidin-3-yl)isoindoline-1,3-dione] | < 50%
21 | O=C1CCC(N2C(=O)c3ccc(N4CCN(CC(F)(F)C5CCN(c6ccc(-c7ccc8c(c7)[nH]c7ccncc78)cn6)CC5)CC4)cc3C2=O)C(=O)N1 (stereo not drawn) [Compound 569, 5-(4-(2-(1-(5-(5H-pyrido[4,3-b]indol-7-yl)pyridin-2-yl)piperidin-4-yl)-2,2-difluoroethyl)piperazin-1-yl)-2-(2,6-dioxopiperidin-3-yl)isoindoline-1,3-dione] | < 50%

— US11912699B2, “Tau-protein targeting compounds and associated” (Arvinas Operations, Inc., priority 2019, dated 2024)
